Patent US20240025922A1, “TETRAHYDROPYRIDO[3,4-d]PYRIMIDINES AS HPK1 INHIBITORS” (Merck Patent GmbH, priority 2022, published 2024)

Tests used:
[1] = target: full-length human HPK1 (MAP4K1) (Homo sapiens (Human), UniProt Q92918); assay: HPK1 Kinase Assay (Biochemical Assay), ADP-Glo; conditions: GST-HPK1 3.2 nM, 10 μM ATP, MBP substrate, read-out: HPK1 enzymatic IC50
Outline: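 ADP-Glo luminescence after a 120-min kinase reaction gave percent inhibition and IC50. The enzyme was Sf21-expressed N-terminal GST full-length human HPK1 at 3.2 nM in HEPES pH 7.5 buffer with MgCl2, DTT, Brij-35 and BSA.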

[2] = target: HPK1 (SLP76 phosphorylation at Ser376 in Jurkat and EL-4 cells) (Homo sapiens, UniProt Q92918); type: cell-based; conditions: αCD3/αCD28 Dynabeads stimulated cells, pSLP76 (Ser376) detection; read-out: HPK1 pSLP76 IC50
Outline: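 Phospho-SLP76 (Ser376) in lysates measured by AlphaLISA for human Jurkat and by 19 h HTRF for mouse EL-4, giving % inhibition and IC50. Compounds applied 60 min before αCD3/αCD28 bead stimulation at 37 °C, lasting 15 min (Jurkat) or 30 min (EL-4).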

HPK1 (SLP76 phosphorylation at Ser376 in Jurkat and EL-4 cells), sequence (Q92918 whole entry, looked up): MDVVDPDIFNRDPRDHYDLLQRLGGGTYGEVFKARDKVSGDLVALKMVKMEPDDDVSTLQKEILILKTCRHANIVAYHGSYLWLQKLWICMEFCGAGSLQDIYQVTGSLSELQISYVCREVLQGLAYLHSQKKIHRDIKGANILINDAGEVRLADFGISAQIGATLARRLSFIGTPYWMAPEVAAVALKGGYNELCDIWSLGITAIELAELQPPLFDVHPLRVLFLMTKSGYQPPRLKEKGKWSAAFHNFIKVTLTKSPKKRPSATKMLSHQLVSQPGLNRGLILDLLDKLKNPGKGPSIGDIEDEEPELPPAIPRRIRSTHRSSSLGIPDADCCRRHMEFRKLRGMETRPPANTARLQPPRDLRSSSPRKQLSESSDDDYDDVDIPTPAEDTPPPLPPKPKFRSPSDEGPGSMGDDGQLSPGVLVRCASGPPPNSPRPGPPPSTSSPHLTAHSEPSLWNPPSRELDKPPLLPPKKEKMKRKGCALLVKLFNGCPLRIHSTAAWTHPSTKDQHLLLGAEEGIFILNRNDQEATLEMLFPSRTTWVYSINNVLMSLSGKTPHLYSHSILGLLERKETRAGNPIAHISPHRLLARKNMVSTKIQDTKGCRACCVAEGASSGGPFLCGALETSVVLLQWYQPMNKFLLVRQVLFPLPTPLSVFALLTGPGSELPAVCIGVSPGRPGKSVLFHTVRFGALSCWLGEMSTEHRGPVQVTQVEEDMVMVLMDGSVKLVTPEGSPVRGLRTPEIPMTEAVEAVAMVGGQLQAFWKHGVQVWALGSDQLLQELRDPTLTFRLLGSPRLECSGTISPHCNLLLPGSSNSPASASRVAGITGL
full-length human HPK1 (MAP4K1), sequence (Q92918 whole entry): as the sequence (Q92918 whole entry, looked up) above

Row | Compound | IC50 [1] | IC50 [2]
1 | Cc1c(N2CCc3cnc(Nc4ccc(C(C)(C)S(C)(=O)=O)cc4)nc3C2)cnc2c1NCCO2 [Example 186, N-[4-(2-methanesulfonylpropan-2-yl)phenyl]-7-{8-methyl-1H,2H,3H-pyrido[2,3-b][1,4]oxazin-7-yl}-5H,6H,7H,8H-pyrido[3,4-d]pyrimidin-2-amine] | < 100 nM | 500 to 1000 nM
2 | Cc1c(N2CCc3cnc(Nc4ccc(CS(C)(=O)=O)c(F)c4)nc3C2)cnc2c1NCCO2 [Example 190, N-[3-fluoro-4-(methanesulfonylmethyl)phenyl]-7-{8-methyl-1H,2H,3H-pyrido[2,3-b][1,4]oxazin-7-yl}-5H,6H,7H,8H-pyrido[3,4-d]pyrimidin-2-amine] | < 100 nM | < 500 nM
3 | Cc1c(N2CCc3cnc(Nc4cccc(Cn5ccnc5)c4)nc3C2)cnc2c1NCCO2 [Example 191, N-{3-[(1H-imidazol-1-yl)methyl]phenyl}-7-{8-methyl-1H,2H,3H-pyrido[2,3-b][1,4]oxazin-7-yl}-5H,6H,7H,8H-pyrido[3,4-d]pyrimidin-2-amine] | < 100 nM | < 500 nM

Now from value to molecule:

Row | IC50 [1] | IC50 [2] | Compound
4 | < 100 nM | < 500 nM | Cc1c(N2CCc3cnc(Nc4ccc(Cn5nccn5)cc4)nc3C2)cnc2c1NCCO2 [Example 185, 7-{8-methyl-1H,2H,3H-pyrido[2,3-b][1,4]oxazin-7-yl}-N-{4-[(2H-1,2,3-triazol-2-yl)methyl]phenyl}-5H,6H,7H,8H-pyrido[3,4-d]pyrimidin-2-amine]
5 | < 100 nM | < 500 nM | Cc1c(N2CCc3cnc(Nc4ccc(Cn5cccn5)cc4)nc3C2)cnc2c1NCCO2 [Example 187, 7-{8-methyl-1H,2H,3H-pyrido[2,3-b][1,4]oxazin-7-yl}-N-{4-[(1H-pyrazol-1-yl)methyl]phenyl}-5H,6H,7H,8H-pyrido[3,4-d]pyrimidin-2-amine]
6 | < 100 nM | < 500 nM | Cc1c(N2CCc3cnc(Nc4ccc(CN5CCOC5=O)cc4)nc3C2)cnc2c1NCCO2 [Example 188, 3-({4-[(7-{8-methyl-1H,2H,3H-pyrido[2,3-b][1,4]oxazin-7-yl}-5H,6H,7H,8H-pyrido[3,4-d]pyrimidin-2-yl)amino]phenyl}methyl)-1,3-oxazolidin-2-one]
7 | < 100 nM | < 500 nM | Cc1c(N2CCc3cnc(Nc4ccc(CC(=O)N(C)C)cc4)nc3C2)cnc2c1NCCO2 [Example 189, N,N-dimethyl-2-{4-[(7-{8-methyl-1H,2H,3H-pyrido[2,3-b][1,4]oxazin-7-yl}-5H,6H,7H,8H-pyrido[3,4-d]pyrimidin-2-yl)amino]phenyl}acetamide]
